Consider six compounds from ChEMBL document CHEMBL4043224, “d-Amino acid mutation of PMI as potent dual peptide inhibitors of p53-MDM2/MDMX interactions” (Bioorg Med Chem Lett, 2017).

As usually defined, the IC50 is the concentration at which inhibition is half-maximal.

Data set [1] in a line: Cytotoxicity against human U87 cells assessed as reduction in cell viability after 24 hrs by MTT assay. The conditions noted are these: U-87 MG.
For data set [2], the target named is T1, Cathepsin G (Homo sapiens, UniProt P08311).
T1 sequence (P08311 whole entry): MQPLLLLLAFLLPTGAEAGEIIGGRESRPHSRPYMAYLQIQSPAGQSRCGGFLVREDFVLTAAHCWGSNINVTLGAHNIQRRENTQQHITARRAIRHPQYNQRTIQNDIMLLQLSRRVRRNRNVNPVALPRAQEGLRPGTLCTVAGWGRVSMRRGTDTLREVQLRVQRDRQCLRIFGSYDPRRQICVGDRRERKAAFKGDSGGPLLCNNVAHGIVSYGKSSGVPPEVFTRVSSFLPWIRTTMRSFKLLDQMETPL
The experiment in a line: Drug metabolism assessed as cathepsin G (unknown origin)-mediated compound hydrolysis after 8 hrs by RP-HPLC analysis. In kind it is ADME.

For data set [3], the target named is T1, Cathepsin G. The experiment in a line: Drug metabolism assessed as cathepsin G (unknown origin)-mediated compound hydrolysis after 4 hrs by RP-HPLC analysis. In kind it is ADME.

Regarding `COc1ccc(C2=N[C@H](c3ccc(Cl)cc3)[C@H](c3ccc(Cl)cc3)N2C(=O)N2CCNC(=O)C2)c(OC(C)C)c1`, the concentration for half-maximal inhibition (IC50) in data set [1] stood at 5.93 µM. Still for that read-out and setting: the value for `CC(C)C[C@H](NC(=O)[C@H](CC(N)=O)NC(=O)[C@H](Cc1c[nH]c2ccccc12)NC(=O)[C@H](Cc1ccc(O)cc1)NC(=O)[C@H](CCC(=O)O)NC(=O)[C@H](C)NC(=O)[C@H](Cc1ccccc1)NC(=O)[C@H](CO)NC(=O)[C@@H](N)[C@@H](C)O)C(=O)N[C@@H](CC(C)C)C(=O)N[C@H](Cc1ccc(O)cc1)C(=O)N1CCC[C@H]1C(=O)O` was 30.9 µM; that for `CC(C)C[C@H](NC(=O)[C@H](CC(N)=O)NC(=O)[C@H](Cc1c[nH]c2ccccc12)NC(=O)[C@H](Cc1ccc(O)cc1)NC(=O)[C@H](CCC(=O)O)NC(=O)[C@H](C)NC(=O)[C@H](Cc1ccccc1)NC(=O)[C@H](CO)NC(=O)[C@@H](N)[C@@H](C)O)C(=O)N[C@@H](CC(C)C)C(=O)N[C@@H](C(=O)N1CCC[C@H]1C(=O)O)[C@H](C)O` was 45.7 µM. Turning to `CC(C)C[C@H](NC(=O)[C@H](CC(N)=O)NC(=O)[C@H](Cc1c[nH]c2ccccc12)NC(=O)[C@H](Cc1ccc(O)cc1)NC(=O)[C@H](CCC(=O)O)NC(=O)[C@H](C)NC(=O)[C@H](Cc1ccccc1)NC(=O)[C@H](CO)NC(=O)[C@@H](N)[C@@H](C)O)C(=O)N[C@@H](CC(C)C)C(=O)N[C@H](Cc1ccccc1)C(=O)N1CCC[C@H]1C(=O)O`, at Cathepsin G [2], the Drug metabolism entry is listed as “Metabolite_Detected”. The IC50 in data set [1] was determined as 54.3 µM. Consider `CC(C)C[C@H](NC(=O)[C@H](CC(N)=O)NC(=O)[C@H](Cc1c[nH]c2ccccc12)NC(=O)[C@H](Cc1ccc(O)cc1)NC(=O)[C@H](CCC(=O)O)NC(=O)[C@H](C)NC(=O)[C@H](Cc1ccccc1)NC(=O)[C@H](CO)NC(=O)[C@@H](N)[C@@H](C)O)C(=O)N[C@@H](CC(C)C)C(=O)N[C@H](Cc1cnc[nH]1)C(=O)N1CCC[C@H]1C(=O)O`, for which the concentration for half-maximal inhibition (IC50) in data set [1] turned out to be 43.5 µM. Consider H-TSFAEYWNLLSP-OH, for which, at Cathepsin G [3], the Drug metabolism result was “Metabolite_Detected”. Further, in data set [1], the IC50 amounted to 67.6 µM.
